Bounds are passed on as bounds.

By IC50 is commonly meant the concentration at which inhibition is half-maximal.

The target of this assay is T1, Tyrosine-protein phosphatase non-receptor type 1 (Homo sapiens, UniProt P18031).
T1 sequence (P18031 whole entry): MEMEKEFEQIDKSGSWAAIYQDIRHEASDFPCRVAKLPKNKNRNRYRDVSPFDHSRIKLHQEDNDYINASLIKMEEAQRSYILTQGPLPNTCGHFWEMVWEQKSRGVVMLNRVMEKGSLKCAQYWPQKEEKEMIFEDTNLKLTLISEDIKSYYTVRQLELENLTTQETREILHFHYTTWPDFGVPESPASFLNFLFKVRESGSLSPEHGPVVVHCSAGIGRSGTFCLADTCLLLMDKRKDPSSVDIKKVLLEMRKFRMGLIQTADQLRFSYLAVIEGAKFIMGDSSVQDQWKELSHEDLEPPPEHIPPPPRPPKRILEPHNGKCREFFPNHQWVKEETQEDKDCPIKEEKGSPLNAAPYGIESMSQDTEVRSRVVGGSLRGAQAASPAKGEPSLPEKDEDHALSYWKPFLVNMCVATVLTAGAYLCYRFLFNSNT
Kind of assay: Inhibition of human recombinant PTP1B.
Consider `COc1ccc(/C=C/C(=O)c2ccc(O)cc2O)cc1`, for which the IC50 was over 60 µM. For the compound `COc1cc(OC)c2c(=O)c(-c3ccc(O)cc3)coc2c1`, the IC50 is over 60 µM. Take `COc1c(CC=C(C)C)cc([C@@H]2CC(=O)c3c(O)cc(O)cc3O2)cc1CC=C(C)C`: the half-maximal inhibitory concentration (IC50) worked out at 26.3 µM. Next, `COc1c(CC=C(C)C)cc([C@@H]2CC(=O)c3ccc(O)cc3O2)cc1CC=C(C)C`: 21.2 µM.

`COc1c(CC=C(C)C)cc(/C=C/C(=O)c2ccc(O)cc2O)cc1CC=C(C)C`: the IC50 is 14.8 µM. The figure for `COc1c(/C=C/C(C)(C)O)cc([C@@H]2CC(=O)c3ccc(O)cc3O2)cc1CC=C(C)C` is over 60 µM; for `CC(C)=CCc1cc([C@@H]2CC(=O)c3ccc(O)cc3O2)cc(CC=C(C)C)c1O` [ABYSSINONE IV] it is 16 µM; for `CC(C)=CCc1cc([C@@H]2CC(=O)c3c(O)cc(O)cc3O2)cc(CC=C(C)C)c1O` [ABYSSINONE V] it is 39.7 µM. Next, `CC1(C)C=Cc2c(cc3occ(-c4ccc(O)cc4)c(=O)c3c2O)O1` [ALPINUMISOFLAVONE]: 41.5 µM; `O=C(/C=C/c1ccc(O)cc1)c1ccc(O)cc1O` [ISOLIQUIRITIGENIN]: over 60 µM.

Take `O=C1C[C@@H](c2ccc(O)cc2)Oc2cc(O)ccc21` [LIQUIRTIGENIN]: the half-inhibitory concentration (IC50) was over 60 µM. Next, `C[C@@H]1O[C@@H](O[C@H]2[C@H](Oc3cc(O)c4c(c3)O[C@H](c3ccc(O)cc3)CC4=O)O[C@H](CO)[C@@H](O)[C@@H]2O)[C@H](O)[C@H](O)[C@H]1O` [NARINGIN]: over 60 µM. The figure for `CC(C)=CCc1cc([C@@H]2CC(=O)c3c(O)cc(O)cc3O2)cc2c1OC(C)(C)C=C2` [SIGMOIDIN E] is 39.2 µM.

The values are drawn from ChEMBL document CHEMBL1158101, “Protein tyrosine phosphatase-1B inhibitory activity of isoprenylated flavonoids isolated from Erythrina mildbraedii” (J Nat Prod, 2006).
